Measured values from a melting point compilation (Tetko et al.; mined from patent text by program, amines drawn as free bases though some values may be those of a salt).

| SMILES | melting point [°C] |
| --- | --- |
| CN1CCN(C(=O)Nc2ccccc2C=Cc2cc(C(C)(C)C)c(O)c(C(C)(C)C)c2)CC1 | 192 to 194 |
| Cn1cncc1CC(=O)c1ccc(Br)cc1 | 109 |
| CCCCNC(=O)CP(=O)(O)O | 115 to 125 |
| CCOC(=O)Oc1ccc(S(=O)(=O)N2c3cc(F)c(F)cc3-n3cccc3C2C)cc1 (centres undefined) | 89 to 91 |
| COc1ccc(-c2csc(NN=Cc3cn(Cc4ccc(Cl)cc4Cl)c4ccccc34)n2)cc1OC | 205 |
| COc1ccc2nc(CBr)sc2c1 | 78 to 81 |
| CC1(Cc2ccccc2)COc2cc(C(=O)O)ccc21 (centres undefined) | 165 |
| CCOCc1nc2c(N)nc3cc(-c4cccc(C(=O)N5CCOCC5)c4)cnc3c2n1CC(C)C | 185 to 187 |
| O=c1ccc(-c2ccc(-c3ccc(=O)[nH]n3)cc2)n[nH]1 | > 250 |
| C#CCc1ccc2onc3c2c1OCC=N3 | 104 to 106 |
| O=C(Cc1ccccc1)CC1c2ccccc2C(=O)N1c1ccc2ccc(Cl)nc2n1 (centres undefined) | 182 |
| CC(=O)ON=C(N)c1ccc(C(=O)N2CCN(C(=O)[C@@H]3CCCN3S(=O)(=O)c3ccc(Cl)c(COc4cccn5c(C)c(C)nc45)c3Cl)CC2)cc1 | 142 to 145 |
| N#CC1CN1C(=O)NC(=O)c1cccs1 (centres undefined) | 156 to 160 |
| NS(=O)(=O)c1ccc(NC(=O)c2ccccc2SSCC(O)CO)cc1 (centres undefined) | > 260 |
| CC(C)NCC(O)COC1c2ccccc2C(=O)N1c1cccc(Cl)c1 (centres undefined) | 128 |
| CC1(C)Oc2c(ccc3oc(C(=O)O)cc(=O)c23)-c2ccc(Cl)cc21 | 257 to 258 |
| CCOC(=O)C1=C(C)NC(C)=C(C(=O)OCCN2CCC(C(c3ccccc3)c3ccccc3)CC2)C1c1cccc(Cl)c1Cl (centres undefined) | 81 to 85 |
| CC(=O)OCC1OC(n2c3ncccc3c3c4c(c5c6cccnc6[nH]c5c32)C(=O)N(C)C4=O)C(OC(C)=O)C(OC(C)=O)C1OC(C)=O (centres undefined) | > 300 |
| COc1ccc(C=C2N=C(c3ccc([N+](=O)[O-])cc3)OC2=O)cc1OC | 265 to 267 |
| CC(C)(C)OC(=O)NCCCCn1c(=O)c2cccc3ncc(c1=O)n32 | 118 to 119 |
| N#Cc1cc(-c2nc3cncnc3s2)ccc1Oc1ccc(Cl)cc1 | 179 to 180 |
| CN(C(=O)N1CC(C)(c2ccccc2)C(c2ccc(Cl)cc2)=N1)c1ccc(Cl)cc1 (centres undefined) | 132 to 135 |
| OCCCc1cnoc1-c1ccc(Cl)c(F)c1 | 51 to 52 |
| Cc1cc(-c2cc(C(F)F)n3ncc(C(=O)Nc4cccc(S(N)(=O)=O)c4)c3n2)ccc1Cl | 264 |
| COC(=O)/C=C/CSc1nc(N)cc(Cl)n1 | 146 to 149 |

| SMILES | melting point [°C] |
| --- | --- |
| CCC(C)Nc1c([N+](=O)[O-])cc(C(F)(F)F)c(C)c1[N+](=O)[O-] (centres undefined) | 38 to 39 |
| O=c1oc2c(Cl)cccc2cc1S(=O)(=O)Nc1ccc(Br)cc1 | 202 to 204 |
| COc1ccc2c(c1)CCC1=C2CCC(O)C1 (centres undefined) | 90 to 92 |
| CCOCc1nc2c(N)nc(C)c(C)c2n1CC(C)C | 110 to 112 |
| Cc1ccc(Cn2cccc2C(=O)CC(=O)C(=O)O)cc1 | 179 to 181 |
| COc1nccc(F)c1NC(=O)OC(C)(C)C | 75 to 77 |
| COc1nc2c(c(OC)n1)C(c1cc(OC)c(OC)c(OC)c1)C1=C(COC1=O)N2 (centres undefined) | 299 to 300 |
| COC(CC1=C(C#N)C(c2cccc3nonc23)c2c[nH]nc2N1)OC (centres undefined) | 115 |
| CN(C)c1ccc(/C=C/C(=O)CC(=O)/C=C/c2ccc3cc[nH]c3c2)cc1 | 112 to 119 |
| Cc1c(NC(=O)c2ccc(OC[C@@H]3CCCO3)cc2F)ccc2c1cc(CNCC(C)(C)O)n2C | 118 |
| ClCc1c2ccccc2c(CCl)c2ccccc12 | 238 to 243 |
| COC(=O)c1cn(-c2ccc(F)cc2)c(-c2ccc(N(C)C)c(C)c2)cc1=O | 217 to 220 |
| C=CCc1cc(Nc2ccn(-c3ccccc3)n2)cc(CC=C)c1OC(C)=O | 110 to 111 |
| CC[C@H](N)C(=O)N1CCC[C@H]1C(=O)NCCCSC | 120 to 121 |
| O=c1ccc(-c2ccncn2)c[nH]1 | > 250 |
| O=C(c1ccccc1)c1cc2ccnc(N(Cc3ccccc3)Cc3ccccc3)c2[nH]1 | 122 to 124 |
| CC(C)CC12CCC3C4CCC(=O)C=C4CCC3C1CCC2OC(=O)CCc1ccccc1 (centres undefined) | 101 to 106 |
| Cc1nnc(-c2sc(N3CCN(Cc4ccc(F)cc4)C3=O)nc2C)[nH]1 | 248 to 249 |
| CCCCc1nn(-c2ccccc2Cl)c(=O)n1Cc1ccc(-c2ccccc2S(=O)(=O)NC(=O)c2ccc(F)cc2)cc1 | 118 to 120 |
| O=c1[nH]c2cc(Cl)ccc2c(O)c1-c1ccc(Cl)cc1 | > 300 |
| CCN1CC(O)CC1=O (centres undefined) | 53 to 54 |
| CNC(=O)n1nc(Oc2c(Cl)cc(C(F)(F)F)cc2Cl)c(Cl)c1C | 125 to 127 |
| COc1cc(C=CC(=O)c2cc(OC)c(OC)c(OC)c2)cc(C(F)(F)F)c1O | 190 to 192 |
| O=C(Nc1cccc(C(F)(F)F)c1)c1ccccc1[N+](=O)[O-] | 134 to 135 |
| CCNc1nc2cc(COc3cccc(C=O)c3)ccc2o1 | 85 to 90 |

| SMILES | melting point [°C] |
| --- | --- |
| CCc1nn2c(-c3ccc(Cl)cc3Cl)nc(C)nc2c1C(CC)CC | 91 to 93 |
| COc1ccc(C(=O)Nc2ccccc2)cc1NS(=O)(=O)c1cn(C)cn1 | 250 to 252 |
| COc1ccc(-n2nc3c(cc2=O)CCSc2sc(C)cc2-3)cc1 | 145 to 146 |
| COc1ccc2c(NC(C)=O)c(C(=O)c3ccccc3)[nH]c2c1 | 144 to 146 |
| CCCCC1(CCCC)CCc2c(OCc3ccc4ccccc4n3)ccc(F)c2C1O (centres undefined) | 128 to 129 |
| O=C(COc1ccccc1)NC(Cc1ccccc1)C(=O)NNc1ccccc1 (centres undefined) | 172 to 175 |
| Cc1cccc(NC(N)=S)n1 | 188 to 190 |
| COC(=O)c1c(C)c(N=O)c2ccccn12 | 131 to 132 |
| O=C(NC(=Cc1ccccc1)c1ccccc1)C(F)(F)F | 148 to 150 |
| CC(C)OC(=O)N1CCC(NC(=O)N2CCn3c(c(C(N)=O)c(C#N)c3-c3ccccc3)C2)CC1 | 172 to 174 |
| NC(=O)c1cc(C(=O)c2ccccc2)ccc1N | 225 |
| CC(C)(C)OC(=O)[C@@H]1CC[C@@H]2CN1C(=O)N2OCc1ccccc1 | 83 |
| CN1CCN(c2c(F)cc3c(=O)c(C(=O)O)cn(-c4ccc(O)cc4)c3c2F)CC1 | > 300 |
| COc1ccc(S(=O)(=O)N(Cc2cccnc2)c2c(C(=O)O)cnc3onc(C)c23)cc1 | 244 to 246 |
| O=C(O)C(O)(c1ccc(F)cc1)c1ccc(F)cc1 | 133 to 136 |
| CSc1nc(F)cc2nnc(SCc3ccccc3)n12 | 74 to 77 |
| CC(CCc1cccc(OCCC(NC(=O)OCc2ccccc2)C(=O)O)c1)=NNC=NN (centres undefined) | 95 to 100 |
| OC1CSC(Oc2cnc(-c3cncnc3)c(F)c2)C(O)C1O (centres undefined) | 192 |
| CC(C)(C)OC(=O)Nc1cc(OCC2COC(=O)O2)c(C#Cc2ccccc2)cc1N (racemic) | 140 |
| O=[N+]([O-])c1ccc(Nc2cccc(-n3cccc3)c2)c([N+](=O)[O-])c1 | 116 to 118 |
| CCc1nnc(CCCOc2c(C)cc(-c3noc(C(F)F)n3)cc2C)s1 | 83 to 84 |
| COc1ccc(OC(=O)CN2CCN(Cc3ccc(OC)c(OC)c3OC)CC2)cc1 | 68 to 71 |
| CCOC(=O)[C@H](Cc1ccc(-c2c(OC)cc(CO)cc2OC)cc1)NC(=O)c1c(F)cccc1Cl | 101 to 104 |
| CC(C)(CSc1ccc(Cl)cc1)C(O)Cn1ccnc1 (centres undefined) | 109 to 110 |
| CCNc1nc(-n2cc(C(=O)O)c(=O)c3cc(F)c(F)c(Cl)c32)c(F)cc1F | 236 to 242 |

| SMILES | melting point [°C] |
| --- | --- |
| O=C(O)Cc1csc(NC(=O)OCC(Cl)(Cl)Cl)n1 | 164 |
| O=C1C(c2cc3c(cc2O)OCCC3)c2ccccc2N1C(c1ccccc1)c1ccccc1 (centres undefined) | 207 to 210 |
| CCCCNc1cccc(-c2ccnc3c(C(=O)c4cccs4)cnn23)c1 | 87 to 91 |
| CCOC(=O)Cc1sc(Sc2cc(C(=O)OCC)nc(SC)n2)nc1C | 69 to 71 |
| NC(=O)N1CCN(c2ccc(O)c(O)c2)C1=O | > 250 |
| O=C(O)C=CC=CCS(=O)(=O)c1ccccc1 | 148 to 150 |
| CCCOc1ccc(S(=O)(=O)NC)cc1C1=NC(=O)C2=NC=NC2=N1 | 245 to 246 |
| Cc1cc(-c2nc3cccnn3c2-c2ccnc(NC(=O)c3ccc(C(F)(F)F)nc3)c2)ccc1F | 225 to 226 |
| O=[N+]([O-])C=C(NCCSCc1nccs1)NCCSCc1nccs1 | 50 to 51 |
| CCC(C)OC(=O)SN(C(=O)N1CC2(C(=O)OC)CCc3ccccc3C2=N1)c1ccc(C(F)(F)F)cc1 (centres undefined) | 125 to 126 |
| CCCCCCCCCc1c(C(F)(F)F)noc1NS(=O)(=O)c1ccccc1 | 102 |
| O=C1N[C@H](Cc2ccc(C(F)(F)F)cc2)[C@H](c2ccoc2)O1 (racemic) | 111 to 112 |
| COC(=O)C1=C(COCCn2c(C)nc(C)c2C)Nc2c(c(=O)n(C)c(=O)n2C)C1c1ccccc1Cl (centres undefined) | 226 to 228 |
| O=c1oc(-c2ccccc2)cc(O)c1C(SC1CCCC1)C1CCCC1 (centres undefined) | 139 to 142 |
| COc1cc2ncc(C#N)c(Nc3ccc(O)cc3O)c2cc1OC | > 250 |
| CSC(=NC#N)N(C)N | 69 to 71 |
| COC(=O)c1ccc(OC)c2c1OCO2 | 122 to 124 |
| O=C(O)c1ccc(C(=O)O)c(Cl)c1 | 313 |
| COC(=O)c1ccc(C(=O)NC(C)C)cc1S(N)(=O)=O | 203 to 205 |
| CCc1cc(=O)n2c3c(cc(C(O)(C(F)(F)F)C(F)(F)F)cc13)CCC2 | 209 to 210 |
| Cc1cccc2[nH]c(=O)n(CCCN3CC=C(c4cccc(C(F)(F)F)c4)CC3)c(=O)c12 | 158 to 160 |
| CC(C(=O)O)c1ccc(N(C)c2nccs2)cc1 (centres undefined) | 121 to 123 |
| O=C1c2cc(O)ccc2CC1Cc1ccccc1 (centres undefined) | 140 to 143 |
| Cc1ccc(S(=O)(=O)c2nnnn2C)cc1 | 110 to 111 |
